These results are taken from ChEMBL document CHEMBL3751691, “A Journey around the Medicinal Chemistry of Hepatitis C Virus Inhibitors Targeting NS4B: From Target to Preclinical Drug Candidates” (J Med Chem, 2016).

A short description of data set [1]: Binding affinity to […] by fluorescence assay. Also noted: species or system Hepacivirus hominis.
Data set [2] concerns Hepatitis C virus. Put plainly: Antiviral activity against HCV genotype 1b infected in human Huh7 cells assessed as inhibition of viral replication after 72 hrs by ELISA. In kind it is functional, organism-based, Hepacivirus hominis. The settings on record: Huh-7, 72 h.
The nature of data set [3]: Inhibition of HCV NS3/4A protease. More on the design: species or system Hepacivirus hominis.
Data set [4] relates to Hepatitis C virus. Put plainly: Antiviral activity against HCV genotype 1b. In kind it is functional, organism-based, Hepacivirus hominis.
The test system of data set [5] is Hepatitis C virus. Put plainly: Antiviral activity against HCV genotype 1b infected in human Huh7 cells assessed as inhibition of viral replication by luciferase reporter-based viral replicon assay. In kind it is functional, organism-based, Hepacivirus hominis. The conditions noted are these: Huh-7.
The test system of data set [6] is Hepatitis C virus. Nature of the data set: Antiviral activity against HCV genotype 1a infected in human Huh7 cells assessed as inhibition of viral replication by luciferase reporter-based viral replicon assay. In kind it is functional, Hepacivirus hominis. The conditions noted are these: subtype 1a, Huh-7.
A short description of data set [7]: Ratio of plasma concentration in CRL-CD-BR rat at 8 hrs to EC50 for antiviral activity against HCV genotype 1b. In kind it is ADME, cell-free.
Data set [8] can be described thus: Ratio of plasma concentration in beagle dog at 8 hrs to EC50 for antiviral activity against HCV genotype 1b. In kind it is ADME, cell-free.
Data set [9] can be described thus: Ratio of plasma concentration in cynomolgus monkey at 8 hrs to EC50 for antiviral activity against HCV genotype 1b. In kind it is ADME, cell-free.
Data set [10] in a line: Ratio of drug level in liver to plasma in CRL-CD-BR rat. In kind it is ADME, cell-free.
Data set [11] can be described thus: Ratio of drug level in brain to plasma in CRL-CD-BR rat. In kind it is ADME, cell-free. The settings on record: read-out: BPR.

On to `CCCCc1c(C)nn(-c2nnc3c4ccccc4n(CC)c3n2)c1C`, for which binding in [1] was put at a Kd of 1200 nM. In addition, the EC50 – broadly, the concentration that produces a half-maximal response – with Hepatitis C virus [2] is 1130 nM.
As to `CC(C)(C)c1ccc(C(=O)Nc2sc3c(c2C(N)=O)CCCC3)cc1`, the Kd – broadly, the free concentration of one partner at which half of the binding sites on the other are occupied at equilibrium, for simple one-to-one binding – in [1] was found to be 300 nM. Further, the EC50 in the data set on Hepatitis C virus [2] came out at 870 nM.
Regarding `CCC[C@H](NC(=O)[C@@H]1[C@H]2CCC[C@H]2CN1C(=O)[C@@H](NC(=O)[C@@H](NC(=O)c1cnccn1)C1CCCCC1)C(C)(C)C)C(=O)C(=O)NC1CC1`, the Ki (in general, a measure of affinity in units of concentration, obtained from inhibition or displacement) in [3] is 7 nM. In the data set with Hepatitis C virus [4], this compound returned an EC50 of 350 nM.
For `CC(C)C[C@H]1CN(C(=O)c2cc(-c3ccccc3)on2)[C@@H](CC(C)C)C(=O)N1`, the EC90 (as a rule, the concentration at which the effect reaches the 90% level) in the data set with Hepatitis C virus [5] was 1100 nM.
For the compound `CC(C)C[C@H]1CN(C(=O)c2noc(-c3ccccc3)n2)[C@@H](CC(C)C)C(=O)N1`, the EC90 in the data set on Hepatitis C virus [5] amounted to 1400 nM.
Still for that read-out and setting: under `CC(C)C[C@H]1CN(C(=O)c2cc(-c3ccccc3)[nH]n2)[C@@H](CC(C)C)C(=O)N1` stands above 10000 nM; under `COc1ccc(-c2cc(C(=O)N3C[C@H](CC(C)C)NC(=O)[C@@H]3CC(C)C)no2)cc1`, 1300 nM.
Same read-out and setting: under `CC(C)C[C@H]1CN(C(=O)c2cc(-c3ccc(Cl)cc3)on2)[C@@H](CC(C)C)C(=O)N1` stands 290 nM; under `CC(C)C[C@H]1CN(C(=O)c2cc(-c3ccc(F)cc3)on2)[C@@H](CC(C)C)C(=O)N1`, 130 nM; under `CC(C)C[C@H]1CN(C(=O)c2cc(-c3ccc([N+](=O)[O-])cc3)on2)[C@@H](CC(C)C)C(=O)N1`, 2600 nM.
The same measure, in the same setting: in the case of `CCC[C@H]1CN(C(=O)c2cc(-c3ccc(F)cc3)on2)[C@@H](CC(C)C)C(=O)N1` it was 100 nM; in that of `C/C=C/[C@H]1CN(C(=O)c2cc(-c3ccc(F)cc3)on2)[C@@H](CC(C)C)C(=O)N1`, 60 nM.
With `CC(C)C[C@H]1C(=O)N[C@@H](C2CCCC2)CN1C(=O)c1cc(-c2ccc(F)cc2)on1`, the EC90 in the data set on Hepatitis C virus [5] was determined as 90 nM.
The same measure, in the same setting: under `CC(C)C[C@H]1C(=O)N[C@@H](CO)CN1C(=O)c1cc(-c2ccc(F)cc2)on1` stands above 10000 nM.
On the same count and under the same terms, in the case of `COC[C@H]1CN(C(=O)c2cc(-c3ccc(F)cc3)on2)[C@@H](CC(C)C)C(=O)N1` it was above 10000 nM; in that of `CC(C)C[C@H]1C(=O)N[C@@H](c2ccccc2)CN1C(=O)c1cc(-c2ccc(F)cc2)on1`, 60 nM.
Take `CC(C)C[C@H]1C(=O)N[C@@H](c2cccs2)CN1C(=O)c1cc(-c2ccc(F)cc2)on1`: the values for the EC90 in the data set with Hepatitis C virus [5] and with Hepatitis C virus [6] were 6 nM and 22 nM, respectively.
In the case of `CCc1cc2c(cc1F)c(C#N)c(-c1ccc(S(=O)(=O)N[C@@H](C)C(F)(F)F)cn1)n2-c1ncccn1`, the Ratio in data set [7] amounted to 325; in [8], 460; in data set [9], 50. In addition, the Kp came to 25 in [10] and 0.22 in [11].
Regarding `CC(C)C[C@H]1CN(C(=O)[C@@H]2C[C@H]2c2ccccc2)[C@@H](CC(C)C)C(=O)N1C`, in the data set with Hepatitis C virus [5], the EC90 came to 8800 nM.
As for `CC(C)C[C@H]1CN(C(=O)[C@@H]2C[C@H]2c2ccccc2)[C@@H](CC(C)C)CN1`, in the data set on Hepatitis C virus [5], the EC90 is above 10000 nM.
Turning to `CC[C@H]1C(=O)N[C@@H](CC(C)C)CN1C(=O)[C@@H]1C[C@H]1c1ccccc1`, in the data set on Hepatitis C virus [5], the EC90 was above 10000 nM.
The same measure, in the same setting: in the case of `CC[C@H](C)[C@H]1CN(C(=O)[C@@H]2C[C@H]2c2ccccc2)[C@@H](CC(C)C)C(=O)N1` it was above 10000 nM.
The same measure, in the same setting: under `CCC[C@H]1CN(C(=O)[C@@H]2C[C@H]2c2ccccc2)[C@@H](CC(C)C)C(=O)N1` stands 900 nM.
